PubChem BioAssay AID1743 (Vanderbilt High Throughput Screening Facility, 2009)

Target: Muscarinic acetylcholine receptor M1 (Rattus norvegicus) (UniProt P08482)
Assay: M1 Y381A mutant agonism, calcium flux – cell-based, rat, CHO-K1, mechanism study for M1 allosteric modulator project (AID 1743)
Conditions: Fluo-4 calcium flux

Chain of Muscarinic acetylcholine receptor M1 (Rattus norvegicus) (P08482 whole entry Y381A, looked up): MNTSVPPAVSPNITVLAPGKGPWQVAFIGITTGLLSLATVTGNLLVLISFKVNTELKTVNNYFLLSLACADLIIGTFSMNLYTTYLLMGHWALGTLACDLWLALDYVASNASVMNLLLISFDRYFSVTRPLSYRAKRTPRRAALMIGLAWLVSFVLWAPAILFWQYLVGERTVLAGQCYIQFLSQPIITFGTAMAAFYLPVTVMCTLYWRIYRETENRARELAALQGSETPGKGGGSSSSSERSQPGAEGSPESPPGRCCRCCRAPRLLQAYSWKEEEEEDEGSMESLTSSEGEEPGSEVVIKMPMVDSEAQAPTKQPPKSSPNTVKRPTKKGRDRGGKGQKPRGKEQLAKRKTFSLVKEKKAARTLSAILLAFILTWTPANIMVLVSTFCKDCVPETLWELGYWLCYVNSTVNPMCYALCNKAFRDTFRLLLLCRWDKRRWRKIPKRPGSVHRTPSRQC

| Structure (SMILES) | EC50 [nM] |
| --- | --- |
| CCOC(=O)N1CCC(NCCNC(=O)c2cccs2)CC1 | 1230 |
| CCOC(=O)N1CCC(NCCNC(=O)c2ccccc2C)CC1 | 379 |
| CCOC(=O)N1CCC(NCCNC(=O)c2ccccc2)CC1 | 304 |
